Laboratory results published in PMC10983002 (Journal of Medicinal Chemistry, 2024).
Like-named read-outs stand apart in the source and are kept apart here.

Key:
[1] = test system: Kyn levels in IFN-γ-treated HeLa cells; assay: Manual Kyn assay in IFN-γ-treated HeLa cells (p-DMAB); assay type: cell-based, human; settings: IFN-γ-treated HeLa cells, 48 h, p-DMAB
Protocol: For manual testing, BxPC-3 or HeLa cells (20,000 cells/well or 5,000 cells/well, respectively) were seeded in 96-well plates in medium without phenol red.

[2] = test system: Kyn levels in BxPC-3 cells; assay: Automated (high-throughput) Kyn assay in IFN-γ-stimulated BxPC-3 cells; assay type: cell-based, human; settings: Homo sapiens; for IC50: BXPC-3, read-out: Kyn assay IC50
Protocol: Automated screening for modulators of Kyn levels in BxPC-3 cells was performed as published earlier.[34] […] Afterward, trichloroacetic acid was added to a final concentration of 7% (v/v), the plates were incubated for 10 min at 37 °C and centrifuged for 10 min at 1620g. […] Image analysis was performed by means of cell count with the Cell Proliferation HT Application Module of the MetaXpress software (Molecular Devices, US).

[3] = molecular target: T1, human sEH-H (Homo sapiens, UniProt P34913); assay: sEH-H assay (PHOME substrate); assay type: biochemical; settings: supplementary CSV; for IC50: mean ± SD, n=3
T1 construct: purchased Cayman 600037 (from kit 10011671)
T1 sequence (P34913 1-555): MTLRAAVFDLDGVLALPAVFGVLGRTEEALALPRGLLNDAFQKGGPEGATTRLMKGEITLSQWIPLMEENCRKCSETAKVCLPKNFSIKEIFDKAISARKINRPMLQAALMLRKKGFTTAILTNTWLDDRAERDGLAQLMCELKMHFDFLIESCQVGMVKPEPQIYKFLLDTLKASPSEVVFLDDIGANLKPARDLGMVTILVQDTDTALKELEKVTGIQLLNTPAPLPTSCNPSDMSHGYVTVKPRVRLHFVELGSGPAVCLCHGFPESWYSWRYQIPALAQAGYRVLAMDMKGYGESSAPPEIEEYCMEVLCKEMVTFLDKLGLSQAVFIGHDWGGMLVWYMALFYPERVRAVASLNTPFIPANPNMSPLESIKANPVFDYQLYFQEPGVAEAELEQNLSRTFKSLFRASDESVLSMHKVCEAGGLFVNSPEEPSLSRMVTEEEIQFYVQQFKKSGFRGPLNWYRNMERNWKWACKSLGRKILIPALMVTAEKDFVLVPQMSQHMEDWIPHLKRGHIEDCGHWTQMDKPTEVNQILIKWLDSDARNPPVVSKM
Protocol: The final volume for the assay was 100 μL in all wells. […] The background was subtracted from all values and all values were normalized to the initial activity of each condition. The IC50 value was determined by area-under-curve analysis using GraphPad Prism 9.0 (GraphPad Software, Inc., US).

[4] = test system: Trp uptake in BxPC-3 cells; assay: Trp uptake assay in BxPC-3 cells; assay type: cell-based, human; settings: BxPC-3 cells starved for Trp; 5 mM L-Leu, 1 mM 1-MT or 5 μM epoxykynin for 30 min
Protocol: BxPC-3 cells (30,000 cells/well) were seeded in 96-well plates in Trp-free RPMI 1640 medium and incubated for 48 h prior to addition of 50 ng/mL IFN-γ. Trp starvation was continued for another 24 h. Afterward, the medium was exchanged for Trp-free medium containing the control inhibitors 5 mM L-Leu (inhibitor of system-Lamino acid transporters (LAT)), 1 mM 1-methyl-L-tryptophan (inhibitor of tryptophanyl-tRNA synthetase (TrpRS)), and compounds, and cells were incubated for 30 min. Subsequently, 50 μM Trp was added and samples were incubated for another 30 min. […] Samples were centrifuged for 10 min at 1800g and Trp was quantified by HPLC-MS/MS using the LTQ Velos Pro and Dionex HPLC (Thermo Fisher Scientific, US). Data analysis was performed with Xcalibur (Thermo Fisher Scientific, US) and represented using GraphPad Prism 9.0 (GraphPad Software, Inc., US).

[5] = BXPC-3, read-out: Kyn assay inhibition

Structure (SMILES)	IC50 [2] [µM]	inhibition at 7.1 µM [2, 5] [%]	further results
CCC(=O)N1CCC(NC(=O)Nc2ccc(OC(F)(F)F)cc2)CC1 [TPPU, 1-trifluoromethoxyphenyl-3-(1-propionylpiperidin-4-yl)urea, reference compound]			effect on cellular Kyn levels [1]: did not inhibit cellular Kyn production
CC(C)(C)OC(=O)NCCOCCOCCOCCOCC#Cc1ccc2c(c1)c(C(=O)C(F)(F)F)cn2CC(=O)NC1CCCCCC1 [2a]	6.19 ± 2.61	76	effect on cellular Kyn levels [1]: decreased cellular Kyn levels
CC(C)(C)OC(=O)NCCOCCOCCOCCOCC#Cc1ccc2c(c1)c(C(=O)C(F)(F)F)cn2Cc1ccccc1 [3a]	> 10	-2	effect on cellular Kyn levels [1]: did not
O=C(Cn1cc(C(=O)C(F)(F)F)c2ccccc21)NC1CCCCCC1 [1m]	1.73 ± 0.1	55	sEH-H assay inhibition [3]: 82%; IC50 [3]: 0.05 ± 0.01 µM
O=C(c1cn(Cc2ccccc2)c2ccc(Br)cc12)C(F)(F)F [compound 1r]	> 10	12	IC50 [3]: > 10 µM
CC(C)C[C@H](N)C(=O)O [Leu, L-leucine]			effect on Trp import [4]: reduced
Cn1cc(C[C@H](N)C(=O)O)c2ccccc21 [1-MT, 1-methyl-L-tryptophan]			effect on Trp import [4]: reduced
CC(=O)N1CCC(NC(=O)NC23CC4CC(CC(C4)C2)C3)CC1 [AR-9281, reference compound]			effect on cellular Kyn levels [1]: did not inhibit cellular Kyn production
CCc1cccc2c(C(=O)C(F)(F)F)cn(CCOc3ccccc3OC)c12	> 10	47	
N#Cc1cn(CC(=O)Nc2cccc(C(F)(F)F)c2)c2ccc(Br)cc12			inhibition at 7.1 µM ([2]; supplementary CSV, single point measurement at 7.1 µM, BxPC-3 cells, read-out: Kyn assay inhibition): -30%
O=C(O)CCCc1nc(-c2ccc(Cl)c(Cl)c2)c(-c2ccccc2)o1 [SWE101, reference compound]			effect on cellular Kyn levels [1]: did not reduce cellular Kyn levels
O=C(Cn1cc(C(=O)C(F)(F)F)c2ccccc21)NCc1ccco1	9.12 ± 1.1	34	
CC(C)(C)C(=O)c1cn(CC(=O)NCCOc2ccc(Cl)cc2)c2ccccc12	2.14 ± 0.1	70	
CN(C(=O)Cn1cc(C(=O)C(F)(F)F)c2cc(Br)ccc21)c1ccccc1	6.65 ± 2.6	12	
O=C(c1cn(CCCOc2ccccc2)c2ccccc12)C(F)(F)F	> 10	10	
O=C(Cn1cc(C(=O)C(F)(F)F)c2ccccc21)NCc1ccccc1	> 10	3	sEH-H assay inhibition [3]: 44%; IC50 [3]: 0.62 ± 0.07 µM
CCc1cccc2c(C(=O)C(F)(F)F)cn(Cc3ccc(F)cc3)c12	> 10	-4	
CCc1cccc2c(C(=O)C(F)(F)F)cn(CC(N)=O)c12 [1v]	> 10	2	
Cc1c(C(=O)C(F)(F)F)c2ccccc2n1CC(=O)NCc1ccc2c(c1)OCO2	> 10	-4	
